Laboratory results: patent US6472348B1, “Pyridone derivatives and herbicides” (Kumiai Chemical Industry Co., Ltd., priority 1996, dated 2002)

What was measured:
Assay type in all cases: in vivo
barnyardgrass (Ec) [1] = assay: Test Example 1: herbicidal effects by paddy field soil treatment; conditions: 100 g of the active ingredient per 10 ares, 21st day after the application, index 0-5 of Table 47;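 further: grade of growth control; 5 = at least 90%; 4 = 70 to 90%; 3 = 50 to 70%; 2 = 30 to 50%; 1 = 10 to 30%; 0 = under 10%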
How it was run: (§1)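 Scoring of herbicidal effect came 21 days after application of 100 g active ingredient per 10 ares to flooded (3 cm) paddy-soil pots sown with barnyardgrass, monochoria and bulrush, kept in a greenhouse.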

bulrush (Sc) = assay: as above; conditions: 100 g of the active ingredient per 10 ares, 21st day after the application, index 0-5 of Table 47;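 further: grade of growth control; 5 = at least 90%; 4 = 70 to 90%; 3 = 50 to 70%; 2 = 30 to 50%; 1 = 10 to 30%; 0 = under 10%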
How it was run: as §1

monochoria (Mo) = assay: as above; conditions: 100 g of the active ingredient per 10 ares, 21st day after the application, index 0-5 of Table 47;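 further: grade of growth control; 5 = at least 90%; 4 = 70 to 90%; 3 = 50 to 70%; 2 = 30 to 50%; 1 = 10 to 30%; 0 = under 10%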
How it was run: as §1

Digitaria ciliaris (Di) = assay: Test Example 2: herbicidal effects by upland field soil treatment; conditions: 100 g of the active ingredient per 10 ares, 21st day after the application, index 0-5 of Table 47;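 further: grade of growth control; 5 = at least 90%; 4 = 70 to 90%; 3 = 50 to 70%; 2 = 30 to 50%; 1 = 10 to 30%; 0 = under 10%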
From the text: (§2) (Test on Herbicidal Effects by Upland Field Soil Treatment)

barnyardgrass (Ec) [2] = assay: as above; conditions: 100 g of the active ingredient per 10 ares, 21st day after the application, index 0-5 of Table 47
From the text: as §2

[3] = test system: common lambsquarters (Ch); assay: as above; conditions: 100 g of the active ingredient per 10 ares, 21st day after the application, index 0-5 of Table 47
From the text: as §2

pale smartweed (Po) [4] = assay: as above; conditions: 100 g of the active ingredient per 10 ares, 21st day after the application, index 0-5 of Table 47
From the text: as §2

rice flatsedge (Ci) [5] = assay: as above; conditions: 100 g of the active ingredient per 10 ares, 21st day after the application, index 0-5 of Table 47
From the text: as §2

slender amaranth (Am) [6] = assay: as above; conditions: 100 g of the active ingredient per 10 ares, 21st day after the application, index 0-5 of Table 47
From the text: as §2

Diaitaria ciliaris (Di) = assay: Test Example 3: herbicidal effects by upland field foliage treatment; set-up: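 grade of growth control; 5 = at least 90%; 4 = 70 to 90%; 3 = 50 to 70%; 2 = 30 to 50%; 1 = 10 to 30%; 0 = under 10%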; conditions: 100 g of the active ingredient per 10 ares, evaluated on the 14th day after treatment
How it was run: (§3)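 Readout: visual herbicidal rating per defined standards, 14th day after treatment. Plants sown in sand (pot area 120 cm^2), soil-covered, greenhouse-cultured for 2 weeks prior to foliage application, then greenhouse-grown until scoring.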

barnyardgrass (Ec) [7] = assay: as above; set-up: scale not given here; conditions: 100 g of the active ingredient per 10 ares, evaluated on the 14th day after treatment
How it was run: as §3

[8] = test system: common lambsquarters (Ch); assay: as above; set-up: scale not given here; conditions: 100 g of the active ingredient per 10 ares, evaluated on the 14th day after treatment
How it was run: as §3

pale smartweed (Po) [9] = assay: as above; set-up: scale not given here; conditions: 100 g of the active ingredient per 10 ares, evaluated on the 14th day after treatment
How it was run: as §3

rice flatsedge (Ci) [10] = assay: as above; set-up: scale not given here; conditions: 100 g of the active ingredient per 10 ares, evaluated on the 14th day after treatment
How it was run: as §3

slender amaranth (Am) [11] = assay: as above; set-up: scale not given here; conditions: 100 g of the active ingredient per 10 ares, evaluated on the 14th day after treatment
How it was run: as §3

cotton (Go) = assay: Test Example 4: crop plant selectivity by upland field soil treatment (cotton), phytotoxicity; set-up: scale not given here; conditions: dose 6.3 g ai/10 a, evaluated 21st day after application
How it was run: (§4)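 Upland soil-treatment selectivity test: scoring on day 21 post-application in a greenhouse, rating crop phytotoxicity on cotton and herbicidal effect on co-sown weeds. Seeds were sown in sand-filled pots and covered with soil before treatment.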

China jute (Ab) [12] = assay: Test Example 4: crop plant selectivity by upland field soil treatment (cotton), herbicidal effects; set-up: scale not given here; conditions: dose 6.3 g ai/10 a, evaluated 21st day after application
How it was run: as §4

[13] = test system: common lambsquarters (Ch); assay: as above; set-up: scale not given here; conditions: dose 6.3 g ai/10 a, evaluated 21st day after application
How it was run: as §4

green foxtail (Se) [14] = assay: as above; set-up: scale not given here; conditions: dose 6.3 g ai/10 a, evaluated 21st day after application
How it was run: as §4

pale smartweed (Po) [15] = assay: as above; set-up: scale not given here; conditions: dose 6.3 g ai/10 a, evaluated 21st day after application
How it was run: as §4

slender amaranth (Am) [16] = assay: as above; set-up: scale not given here; conditions: dose 6.3 g ai/10 a, evaluated 21st day after application
How it was run: as §4

wheat (Tr) = assay: Test Example 5: crop plant selectivity by upland field soil treatment (wheat), phytotoxicity; set-up: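 grade of crop injury; 5 = at least 90%; 4 = 70 to 90%; 3 = 50 to 70%; 2 = 30 to 50%; 1 = 10 to 30%; 0 = under 10%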; conditions: dose 6.3 g ai/10a, 21st day after application
How it was run: (§5)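 Pots of sand sown with wheat and weeds (incl. Digitaria ciliaris, green foxtail, slender amaranth), seeds covered with soil, soil-applied treatment. Grown in greenhouse; herbicidal effect and crop phytotoxicity scored visually on day 21 after application against a rating scale.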

China jute (Ab) [17] = assay: Test Example 5: crop plant selectivity by upland field soil treatment (wheat), herbicidal effects; set-up: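 grade of growth control; 5 = at least 90%; 4 = 70 to 90%; 3 = 50 to 70%; 2 = 30 to 50%; 1 = 10 to 30%; 0 = under 10%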; conditions: dose 6.3 g ai/10a, 21st day after application
How it was run: as §5

[18] = test system: common lambsquarters (Ch); assay: as above; set-up: scale not given here; conditions: dose 6.3 g ai/10a, 21st day after application
How it was run: as §5

green foxtail (Se) [19] = assay: as above; set-up: scale not given here; conditions: dose 6.3 g ai/10a, 21st day after application
How it was run: as §5

pale smartweed (Po) [20] = assay: as above; set-up: scale not given here; conditions: dose 6.3 g ai/10a, 21st day after application
How it was run: as §5

slender amaranth (Am) [21] = assay: as above; set-up: scale not given here; conditions: dose 6.3 g ai/10a, 21st day after application
How it was run: as §5

soybean (Gl) = assay: Test Example 6: crop plant selectivity by upland field soil treatment (soybean), phytotoxicity; set-up: scale not given here; conditions: dose 6.3 g ai/10a, 21st day after application
Protocol: (§6) (Test on Crop Plant Selectivity by Upland Field Soil Treatment)
(§7) In a plastic pot (surface area: 600 cm^2) filled with sand, soybean (Gl), Diaitaria ciliaris (Di), green foxtail (Se), Johnsongrass (So), pale smartweed (Po), slender amaranth (Am), common lambsquarters (Ch) and China jute (Ab) were sown and covered with soil. […] The plants were then cultured in a green house, and the evaluation of the herbicidal effects and phytotoxicity was conducted on the 21st day after the application in accordance with the standards as identified in Table 47. Symbol—represents “not tested”.

China jute (Ab) [22] = assay: Test Example 6: crop plant selectivity by upland field soil treatment (soybean), herbicidal effects; set-up: scale not given here; conditions: dose 6.3 g ai/10a, 21st day after application
Protocol: as §6, §7

[23] = test system: common lambsquarters (Ch); assay: as above; set-up: scale not given here; conditions: dose 6.3 g ai/10a, 21st day after application
Protocol: as §6, §7

green foxtail (Se) [24] = assay: as above; set-up: scale not given here; conditions: dose 6.3 g ai/10a, 21st day after application
Protocol: as §6, §7

pale smartweed (Po) [25] = assay: as above; set-up: scale not given here; conditions: dose 6.3 g ai/10a, 21st day after application
Protocol: as §6, §7

slender amaranth (Am) [26] = assay: as above; set-up: scale not given here; conditions: dose 6.3 g ai/10a, 21st day after application
Protocol: as §6, §7

corn (Ze) = assay: Test Example 7: crop plant selectivity by upland field soil treatment (corn), phytotoxicity; set-up: scale not given here; conditions: dose 6.3 g ai/10a, 21st day after application
Protocol: as §6
(§8) In a plastic pot (surface area: 600 cm^2) filled with sand, corn (Ze), green foxtail (Se), pale smartweed (Po), slender amaranth (Am), common lambsquarters (Ch) and China jute (Ab) were sown and covered with soil. […] The plants were then cultured in a green house, and the evaluation of the herbicidal effects and phytotoxicity was conducted on the 21st day after the application in accordance with the standards as identified in Table 47.

China jute (Ab) [27] = assay: Test Example 7: crop plant selectivity by upland field soil treatment (corn), herbicidal effects; set-up: scale not given here; conditions: dose 6.3 g ai/10a, 21st day after application
Protocol: as §6, §8

[28] = test system: common lambsquarters (Ch); assay: as above; set-up: scale not given here; conditions: dose 6.3 g ai/10a, 21st day after application
Protocol: as §6, §8

green foxtail (Se) [29] = assay: as above; set-up: scale not given here; conditions: dose 6.3 g ai/10a, 21st day after application
Protocol: as §6, §8

pale smartweed (Po) [30] = assay: as above; set-up: scale not given here; conditions: dose 6.3 g ai/10a, 21st day after application
Protocol: as §6, §8

slender amaranth (Am) [31] = assay: as above; set-up: scale not given here; conditions: dose 6.3 g ai/10a, 21st day after application
Protocol: as §6, §8

| SMILES | Herbicidal effects Ec (barnyardgrass (Ec) [1]) | Herbicidal effects Sc (bulrush (Sc)) | Herbicidal effects Mo (monochoria (Mo)) | Herbicidal effects Di (Digitaria ciliaris (Di)) | Herbicidal effects Ec (barnyardgrass (Ec) [2]) | Herbicidal effects Ch [3] | Herbicidal effects Po (pale smartweed (Po) [4]) | Herbicidal effects Ci (rice flatsedge (Ci) [5]) | Herbicidal effects Am (slender amaranth (Am) [6]) | Herbicidal effects Di (Diaitaria ciliaris (Di)) | Herbicidal effects Ec (barnyardgrass (Ec) [7]) | Herbicidal effects Ch [8] | Herbicidal effects Po (pale smartweed (Po) [9]) | Herbicidal effects Ci (rice flatsedge (Ci) [10]) | Herbicidal effects Am (slender amaranth (Am) [11]) | Phytotoxicity Go (cotton (Go)) | Herbicidal effects Ab (China jute (Ab) [12]) | Herbicidal effects Ch [13] | Herbicidal effects Se (green foxtail (Se) [14]) | Herbicidal effects Po (pale smartweed (Po) [15]) | further results |
| --- | --- | --- | --- | --- | --- | --- | --- | --- | --- | --- | --- | --- | --- | --- | --- | --- | --- | --- | --- | --- | --- |
| Cn1c(C(F)(F)F)ccc(-c2cc(Br)c(Cl)cc2F)c1=O [1-138] | 5 | 5 | 5 | 5 | 5 | 5 | 5 | 5 | 5 | 5 | 5 | 5 | 5 | 5 | 5 | 1 | 4 | 5 | 5 | 5 | Herbicidal effects Am (slender amaranth (Am) [16]): 5; Phytotoxicity Tr (wheat (Tr)): 1; Herbicidal effects Ab (China jute (Ab) [17]): 4; Herbicidal effects Ch [18]: 5; Herbicidal effects Se (green foxtail (Se) [19]): 5; Herbicidal effects Po (pale smartweed (Po) [20]): 5; Herbicidal effects Am (slender amaranth (Am) [21]): 5; Phytotoxicity Gl (soybean (Gl)): 2; Herbicidal effects Ab (China jute (Ab) [22]): 4; Herbicidal effects Ch [23]: 5; Herbicidal effects Se (green foxtail (Se) [24]): 5; Herbicidal effects Po (pale smartweed (Po) [25]): 5; Herbicidal effects Am (slender amaranth (Am) [26]): 5; Phytotoxicity Ze (corn (Ze)): 2; Herbicidal effects Ab (China jute (Ab) [27]): 4; Herbicidal effects Ch [28]: 5; Herbicidal effects Se (green foxtail (Se) [29]): 5; Herbicidal effects Po (pale smartweed (Po) [30]): 5; Herbicidal effects Am (slender amaranth (Am) [31]): 5 |
| CCC(C)Oc1cc(-c2ccc(C(F)(F)F)n(C)c2=O)c(F)cc1Cl (stereo not drawn) [1-167] | 5 | 5 | 5 | 5 | 5 | 5 | 5 | 5 | 5 | 5 | 5 | 5 | 5 | 5 | 5 | 1 | 5 | 5 | 5 | 5 | Herbicidal effects Am (slender amaranth (Am) [16]): 5; Phytotoxicity Tr (wheat (Tr)): 1; Herbicidal effects Ab (China jute (Ab) [17]): 5; Herbicidal effects Ch [18]: 5; Herbicidal effects Se (green foxtail (Se) [19]): 5; Herbicidal effects Po (pale smartweed (Po) [20]): 5; Herbicidal effects Am (slender amaranth (Am) [21]): 5; Phytotoxicity Gl (soybean (Gl)): 1; Herbicidal effects Ab (China jute (Ab) [22]): 5; Herbicidal effects Ch [23]: 5; Herbicidal effects Se (green foxtail (Se) [24]): 5; Herbicidal effects Po (pale smartweed (Po) [25]): 5; Herbicidal effects Am (slender amaranth (Am) [26]): 5; Phytotoxicity Ze (corn (Ze)): 0; Herbicidal effects Ab (China jute (Ab) [27]): 5; Herbicidal effects Ch [28]: 5; Herbicidal effects Se (green foxtail (Se) [29]): 5; Herbicidal effects Po (pale smartweed (Po) [30]): 5; Herbicidal effects Am (slender amaranth (Am) [31]): 5 |
